Measurements published in patent publication US20220324835A1 (Nurix Therapeutics, Inc., priority 2018, published 2022).
pIC50: −log10 of the molar value.

Key:
[1] = test system: T-cell; experiment: CD25 cell surface staining on T-cells co-stimulated with anti-CD3 and anti-CD28 antibody (Biological Example 2); assay type: cell-based, human; conditions: Homo sapiens, T-cell, fold change over baseline, primary human total T-cells, read-out: CD25 staining Anti-CD3/Anti-CD28 stimulation; for fold induction at 0.3 µM: 0.3 μM Cbl-b inhibitor; for fold induction at 1 µM: 1 μM Cbl-b inhibitor; for fold induction at 4 µM: 4 μM Cbl-b inhibitor
Text: (§1) Methods for experimentally determining increased T-cell activation, increased T-cell proliferation, decreased T-cell exhaustion, and/or decreased T-cell tolerance are well known in the art.
(§2) Modulation of activity of an immune cell, such as a T-cell, a B cell or a NK cell can be measured by determining a baseline value for a parameter of interest (e.g., cytokine secretion). […] A reference value then is obtained for T-cell activation after contacting or administering said Cbl-b inhibitor. The reference value is compared to the baseline value in order to determine the amount of T-cell activation due to contact or administration of the Cbl-b inhibitor or composition thereof. […] Immune cell activation can be assessed by measuring biological markers of activation such as increased cytokine secretion, increased cell surface expression of activation markers (e.g., cell surface markers), or increased phosphorylation of proteins in a downstream signaling pathway. The fold over baseline value that indicates immune cell activation can be determined for the parameter being tested and the conditions under which the immune cell were treated. For example, for measuring T-cell activation, a baseline value can be obtained from T-cells stimulated with anti-CD3 antibody in combination with anti-CD28 antibody, wherein the cells are not incubated with a Cbl-b inhibitor. […] A positive response for immune cell activation can then be determined by the obtained reference value. […]

[2] = test system: T-cell; experiment: IL-2 secretion from T-cells co-stimulated with anti-CD3 and anti-CD28 antibody (Biological Example 2); assay type: cell-based, human; conditions: Homo sapiens, T-cell, fold change over baseline, primary human total T-cells, read-out: IL-2 secretion Anti-CD3/Anti-CD28 stimulation; for fold induction at 0.3 µM: 0.3 μM Cbl-b inhibitor; for fold induction at 1 µM: 1 μM Cbl-b inhibitor; for fold induction at 4 µM: 4 μM Cbl-b inhibitor
Text: as §1, §2

[3] = test system: T-cell; experiment: CD25 cell surface staining on T-cells stimulated with anti-CD3 antibody alone (Biological Example 2); assay type: cell-based, human; conditions: T-cell, fold change over baseline, primary human total T-cells, read-out: CD25 staining Anti-CD3 stimulation; for fold induction at 1 µM: 1 μM Cbl-b inhibitor; for fold induction at 8 µM: 8 μM Cbl-b inhibitor
Text: as §1
(§3) Modulation of activity of an immune cell, such as a T-cell, a B cell or a NK cell can be measured by determining a baseline value for a parameter of interest (e.g., cytokine secretion). […] A reference value then is obtained for T-cell activation after contacting or administering said Cbl-b inhibitor. The reference value is compared to the baseline value in order to determine the amount of T-cell activation due to contact or administration of the Cbl-b inhibitor or composition thereof. […] Immune cell activation can be assessed by measuring biological markers of activation such as increased cytokine secretion, increased cell surface expression of activation markers (e.g., cell surface markers), or increased phosphorylation of proteins in a downstream signaling pathway. The fold over baseline value that indicates immune cell activation can be determined for the parameter being tested and the conditions under which the immune cell were treated. For example, for measuring T-cell activation, a baseline value can be obtained from T-cells stimulated with anti-CD3 antibody in combination with anti-CD28 antibody, wherein the cells are not incubated with a Cbl-b inhibitor. […] A positive response for immune cell activation can then be determined by the obtained reference value.
(§4) In some embodiments, a baseline value can be obtained from T-cells stimulated with anti-CD3 antibody alone, wherein the cells are not incubated with a Cbl-b inhibitor. In some embodiments, a positive response for T-cell activation as measured by cytokine secretion (e.g., IL-2 secretion) by T-cells stimulated with anti-CD3 antibody alone in the presence of a Cbl-b inhibitor is at least 0.1-fold over the baseline value for cytokine secretion (e.g., IL-2 secretion) obtained from T-cells stimulated with anti-CD3 antibody alone in the absence of a Cbl-b inhibitor. In some embodiments, a positive response for T-cell activation as measured by surface marker expression (e.g., CD25 surface marker staining) by T-cells stimulated with anti-CD3 antibody alone in the presence of a Cbl-b inhibitor is at least 0.6-fold over the baseline value for surface marker expression (e.g., CD25 surface marker staining) obtained from T-cells stimulated with anti-CD3 antibody alone in the absence of a Cbl-b inhibitor.

[4] = test system: T-cell; experiment: IL-2 secretion from T-cells stimulated with anti-CD3 antibody alone (Biological Example 2); assay type: cell-based, human; conditions: T-cell, fold change over baseline, primary human total T-cells, read-out: IL-2 secretion Anti-CD3 stimulation; for fold induction at 1 µM: 1 μM Cbl-b inhibitor; for fold induction at 8 µM: 8 μM Cbl-b inhibitor
Text: as §1, §3, §4

[5] = molecular target: Cbl-b (Homo sapiens, UniProt Q13191); experiment: Cbl-b activity assay (Cbl-b inhibition assay), TR-FRET of Cbl-b interaction with UbcH5B-Ub; assay type: biochemical; conditions: assay buffer with 100 mM NaCl, 60 nM Src kinase; read-out: Cbl-b activity IC50
Cbl-b, sequence (Q13191 36-427): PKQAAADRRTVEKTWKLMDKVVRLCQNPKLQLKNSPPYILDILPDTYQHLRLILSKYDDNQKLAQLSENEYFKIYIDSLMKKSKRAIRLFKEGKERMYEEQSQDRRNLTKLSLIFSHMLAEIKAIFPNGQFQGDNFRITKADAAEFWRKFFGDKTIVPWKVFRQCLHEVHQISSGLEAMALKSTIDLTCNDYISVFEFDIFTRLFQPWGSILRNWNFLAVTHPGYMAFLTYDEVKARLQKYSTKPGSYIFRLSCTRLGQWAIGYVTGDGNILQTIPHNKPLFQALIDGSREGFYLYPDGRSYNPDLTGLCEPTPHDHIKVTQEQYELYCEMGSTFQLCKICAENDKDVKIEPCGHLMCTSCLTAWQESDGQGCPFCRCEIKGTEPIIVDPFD
How it was run: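 Compound-treated Cbl-b was incubated 1.5 h with Src kinase (60 nM final; 30 nM for asterisked values, which also used 50 mM instead of 100 mM NaCl), 1 mM ATP and 5 mM MgCl2. Binding to fluorescent Ub-loaded UbcH5B (C85K mutant) was then read by TR-FRET after 1 h more.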

| SMILES | fold induction at 0.3 µM [1] | fold induction at 1 µM [1] | fold induction at 4 µM [1] | fold induction at 0.3 µM [2] | fold induction at 1 µM [2] | fold induction at 4 µM [2] | fold induction at 1 µM [3] | fold induction at 8 µM [3] | fold induction at 1 µM [4] | fold induction at 8 µM [4] | pIC50 [5] |
| --- | --- | --- | --- | --- | --- | --- | --- | --- | --- | --- | --- |
| C[C@H](Cc1nncn1C)c1cccc(NC(=O)c2cc(C(F)(F)F)n[nH]2)c1 [Compound 314, (R)-N-(3-(1-(4-Methyl-4H-1,2,4-triazol-3-yl)propan-2-yl)phenyl)-3-(trifluoromethyl)-1H-pyrazole-5-carboxamide] | 1.01 to 1.3 | 1.01 to 1.3 | 1.01 to 1.3 | 1.01 to 2.5 | 1.01 to 2.5 | 1.01 to 2.5 | 0.601 to 0.8 | 0.601 to 0.8 | 0.051 to 0.1 | 0.101 to 0.15 | 6.00 to 6.52 |
| C[C@H](Cc1nncn1C)c1cccc(NC(=O)c2coc(C(F)(F)F)n2)c1 [Compound 315, (R)-N-(3-(1-(4-Methyl-4H-1,2,4-triazol-3-yl)propan-2-yl)phenyl)-2-(trifluoromethyl)oxazole-4-carboxamide] | 1.01 to 1.3 | 1.01 to 1.3 | 1.01 to 1.3 | < 1 | 1.01 to 2.5 | 1.01 to 2.5 | 0.601 to 0.8 | 0.801 to 1 | 0.051 to 0.1 | 0.101 to 0.15 | 6.00 to 6.52 |
| C[C@H](Cc1nncn1C)c1cccc(NC(=O)c2ccn3nccc3n2)c1 [Compound 316, (R)-N-(3-(1-(4-Methyl-4H-1,2,4-triazol-3-yl)propan-2-yl)phenyl)pyrazolo[1,5-a]pyrimidine-5-carboxamide] | 1.01 to 1.3 | 1.01 to 1.3 | 1.01 to 1.3 | 1.01 to 2.5 | 1.01 to 2.5 | 2.51 to 5 | 0.601 to 0.8 | > 1 | 0.051 to 0.1 | 0.151 to 0.2 | 6.00 to 6.52 |
| C[C@H](Cc1nncn1C)c1cccc(NC(=O)c2cc3cccn3cn2)c1 [Compound 317, (R)-N-(3-(1-(4-Methyl-4H-1,2,4-triazol-3-yl)propan-2-yl)phenyl)pyrrolo[1,2-c]pyrimidine-3-carboxamide] | 1.01 to 1.3 | 1.01 to 1.3 | 1.01 to 1.3 | 1.01 to 2.5 | 1.01 to 2.5 | 1.01 to 2.5 | 0.601 to 0.8 | 0.801 to 1 | 0.051 to 0.1 | 0.101 to 0.15 | 6.00 to 6.52 |
| C[C@H](Cc1nncn1C)c1cccc(NC(=O)c2cn3ccnc3cn2)c1 [Compound 318, (R)-N-(3-(1-(4-Methyl-4H-1,2,4-triazol-3-yl)propan-2-yl)phenyl)imidazo[1,2-a]pyrazine-6-carboxamide] | < 1 | 1.01 to 1.3 | 1.01 to 1.3 | 1.01 to 2.5 | 1.01 to 2.5 | 1.01 to 2.5 | 0.601 to 0.8 | 0.801 to 1 | 0.051 to 0.1 | 0.101 to 0.15 | 6.00 to 6.52 |
| C[C@@H](Cc1nncn1C)c1cccc(NC(=O)c2cc(C3CC3)cc(C(F)(F)F)n2)c1 [Compound 322, (S)-4-Cyclopropyl-N-(3-(1-(4-methyl-4H-1,2,4-triazol-3-yl)propan-2-yl)phenyl)-6-(trifluoromethyl)picolinamide] | 1.01 to 1.3 | 1.01 to 1.3 | 1.01 to 1.3 | 1.01 to 2.5 | 1.01 to 2.5 | 1.01 to 2.5 | 0.601 to 0.8 | 0.601 to 0.8 | 0.051 to 0.1 | 0.101 to 0.15 | 6.00 to 6.52 |
| C[C@H](Cc1nncn1C)c1cccc(NC(=O)c2cnn3cccnc23)c1 [Compound 324, (R)-N-(3-(1-(4-Methyl-4H-1,2,4-triazol-3-yl)propan-2-yl)phenyl)pyrazolo[1,5-a]pyrimidine-3-carboxamide] | < 1 | < 1 | 1.01 to 1.3 | 1.01 to 2.5 | 1.01 to 2.5 | 1.01 to 2.5 | 0.601 to 0.8 | 0.601 to 0.8 | 0.051 to 0.1 | 0.051 to 0.1 | 6.00 to 6.52 |
| C[C@H](Cc1nncn1C)c1cc(NC2COC2)cc(N2Cc3c(cccc3C(F)(F)F)C2=O)c1 [Compound 350, 2-{3-[(2R)-1-(4-methyl-4H-1,2,4-triazol-3-yl)propan-2-yl]-5-[(oxetan-3-yl)amino]phenyl}-4-(trifluoromethyl)-2,3-dihydro-1H-isoindol-1-one] | 1.01 to 1.3 | 1.01 to 1.3 | 1.01 to 1.3 | < 1 | 1.01 to 2.5 | 1.01 to 2.5 | 0.601 to 0.8 | 0.801 to 1 | 0.051 to 0.1 | 0.051 to 0.1 | 6.00 to 6.52 |
| CC1OCC1Oc1cc([C@H](C)Cc2nncn2C)cc(N2Cc3c(cccc3C(F)(F)F)C2=O)n1 (stereo partly drawn) [Compound 355, 2-(4-((R)-1-(4-methyl-4H-1,2,4-triazol-3-yl)propan-2-yl)-6-((2-methyloxetan-3-yl)oxy)pyridin-2-yl)-4-(trifluoromethyl)isoindolin-1-one] | 1.01 to 1.3 | 1.01 to 1.3 | 1.01 to 1.3 | 1.01 to 2.5 | 1.01 to 2.5 | 1.01 to 2.5 | 0.601 to 0.8 | 0.601 to 0.8 | 0.051 to 0.1 | 0.101 to 0.15 | 6.00 to 6.52 |
| C[C@H](Cc1nncn1C)c1cc(OCCO)nc(N2Cc3c(cccc3C(F)(F)F)C2=O)c1 [Compound 359, (R)-2-(6-(2-hydroxyethoxy)-4-(1-(4-methyl-4H-1,2,4-triazol-3-yl)propan-2-yl)pyridin-2-yl)-4-(trifluoromethyl)isoindolin-1-one] | 1.01 to 1.3 | 1.01 to 1.3 | 1.31 to 1.5 | 1.01 to 2.5 | 1.01 to 2.5 | 2.51 to 5 | 0.601 to 0.8 | > 1 | 0.051 to 0.1 | > 0.201 | 6.00 to 6.52 |
